Test results as given in PubChem BioAssay (NCI).
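Step 1: Grow cells in 96-well plates. Step 2: Expose to compound for 48 hours at 5 concentrations. Step 3: Interpolate endpoints linearly; if unreached, use highest concentration. TGI is the concentration that stops growth completely.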 Activity calls are given as the source filed them. No stated cut-off is given here; in the data, active means GI50 below about 0.43 µM; inactive means the rest.

Tests used:
Experiment in all cases: growth of human tumour cells (NCI), 48 h
[1] = system: DMS 273 small cell lung
[2] = system: SF-539 CNS
[3] = system: MALME-3M melanoma
[4] = system: SK-OV-3 ovarian
[5] = system: SNB-78 CNS
[6] = system: U251 CNS
[7] = system: K-562 leukemia
[8] = system: HCC-2998 colon
[9] = system: DMS 114 small cell lung
[10] = system: SK-MEL-2 melanoma
[11] = system: OVCAR-8 ovarian
[12] = system: DLD-1 colon
[13] = system: HCT-15 colon
[14] = system: UO-31 renal
[15] = system: LXFL 529 NSCLC
[16] = system: EKVX NSCLC
[17] = system: TK-10 renal
[18] = system: RPMI-8226 leukemia
[19] = system: NCI-H460 lung
[20] = system: M14 melanoma
[21] = system: UACC-62 melanoma
[22] = system: IGROV1 ovarian
[23] = system: HL-60(TB) leukemia
[24] = system: OVCAR-5 ovarian
[25] = system: NCI-H23 lung
[26] = system: RXF-631 renal
[27] = system: OVCAR-4 ovarian
[28] = system: SNB-75 CNS
[29] = system: KM20L2 colon
[30] = system: RXF 393 renal
[31] = system: HOP-62 NSCLC
[32] = system: XF 498 CNS
[33] = system: NCI-H226 lung
[34] = system: SF-295 CNS
[35] = system: HT29 colon
[36] = system: KM12 colon
[37] = system: ACHN renal
[38] = system: SW-620 colon
[39] = system: M19-MEL melanoma
[40] = system: UACC-257 melanoma
[41] = system: CCRF-CEM leukemia
[42] = system: SK-MEL-28 melanoma
[43] = system: MOLT-4 leukemia
[44] = system: 786-0 renal
[45] = system: A549 NSCLC
[46] = system: SK-MEL-5 melanoma
[47] = system: HCT-116 colon
[48] = system: A498 renal
[49] = system: OVCAR-3 ovarian
[50] = system: CAKI-1 renal
[51] = system: HOP-92 NSCLC
[52] = system: SN12C renal
[53] = system: SNB-19 CNS
[54] = system: COLO 205 colon
[55] = system: SR leukemia
[56] = system: LOX IMVI melanoma
[57] = system: SF-268 CNS
[58] = system: NCI-H522 lung

Structure (SMILES): Cc1[nH]c2ccccc2c1-c1n[nH]c(=O)c2ccccc12
- TGI [1]: 72.9 µM
- TGI [2]: > 100 µM
- TGI [3]: 74.4 µM
- TGI [4]: 72.1 µM
- TGI [5]: > 100 µM
- TGI [6]: > 100 µM
- TGI [7]: > 100 µM
- TGI [8]: > 100 µM
- TGI [9]: 58.7 µM
- TGI [10]: > 100 µM
- TGI [11]: > 100 µM
- TGI [12]: > 100 µM
- TGI [13]: > 100 µM
- TGI [14]: 61.9 µM
- TGI [15]: > 100 µM
- TGI [16]: > 100 µM
- TGI [17]: > 100 µM
- TGI [18]: 74.7 µM
- TGI [19]: > 100 µM
- TGI [20]: > 100 µM
- TGI [21]: > 100 µM
- TGI [22]: > 100 µM
- TGI [23]: 55.6 µM
- TGI [24]: > 100 µM
- TGI [25]: > 100 µM
- TGI [26]: 66.1 µM
- TGI [27]: > 100 µM
- TGI [28]: 57.9 µM
- TGI [29]: 92.6 µM
- TGI [30]: 37.1 µM
- TGI [31]: 50.3 µM
- TGI [32]: 76.2 µM
- TGI [33]: 85.3 µM
- TGI [34]: 91.8 µM
- TGI [35]: > 100 µM
- TGI [36]: > 100 µM
- TGI [37]: > 100 µM
- TGI [38]: > 100 µM
- TGI [39]: > 100 µM
- TGI [40]: > 100 µM
- TGI [41]: > 100 µM
- TGI [42]: > 100 µM
- TGI [43]: 81.3 µM
- TGI [44]: > 100 µM
- TGI [45]: > 100 µM
- TGI [46]: 41 µM
- TGI [47]: 35.8 µM
- TGI [48]: 63.5 µM
- TGI [49]: 67.3 µM
- TGI [50]: > 100 µM

Structure (SMILES): O=C(COc1ccc2c(=O)cc(-c3ccc(Cl)cc3)oc2c1)N1CCN(c2ccccc2)CC1
- TGI [2]: > 100 µM
- TGI [3]: > 100 µM
- TGI [4]: > 100 µM
- TGI [5]: > 100 µM
- TGI [6]: > 100 µM
- TGI [7]: > 100 µM
- TGI [51]: > 100 µM
- TGI [8]: > 100 µM
- TGI [52]: > 100 µM
- TGI [10]: > 100 µM
- TGI [11]: > 100 µM
- TGI [53]: > 100 µM
- TGI [12]: > 100 µM
- TGI [13]: > 100 µM
- TGI [14]: > 100 µM
- TGI [15]: > 100 µM
- TGI [16]: > 100 µM
- TGI [17]: > 100 µM
- TGI [54]: > 100 µM
- TGI [18]: > 100 µM
- TGI [19]: > 100 µM
- TGI [20]: > 100 µM
- TGI [21]: > 100 µM
- TGI [22]: > 100 µM
- TGI [23]: > 100 µM
- TGI [24]: > 100 µM
- TGI [25]: > 100 µM
- TGI [26]: > 100 µM
- TGI [27]: > 100 µM
- TGI [28]: > 100 µM
- TGI [29]: > 100 µM
- TGI [30]: > 100 µM
- TGI [31]: > 100 µM
- TGI [32]: > 100 µM
- TGI [33]: > 100 µM
- TGI [34]: > 100 µM
- TGI [35]: > 100 µM
- TGI [36]: > 100 µM
- TGI [37]: > 100 µM
- TGI [38]: > 100 µM
- TGI [55]: > 100 µM
- TGI [39]: > 100 µM
- TGI [40]: > 100 µM
- TGI [42]: > 100 µM
- TGI [43]: > 100 µM
- TGI [44]: > 100 µM
- TGI [56]: > 100 µM
- TGI [45]: > 100 µM
- TGI [57]: > 100 µM
- TGI [46]: > 100 µM
- TGI [47]: > 100 µM
- TGI [48]: > 100 µM
- TGI [49]: > 100 µM
- TGI [50]: > 100 µM

Structure (SMILES): COC(=O)C1(COCc2ccccc2)CCCC2OC21 (stereo unspecified)
- outcome [1]: inactive
- outcome [2]: inactive
- outcome [3]: inactive
- outcome [4]: inactive
- outcome [5]: inactive
- outcome [6]: inactive
- outcome [7]: inactive
- outcome [51]: inactive
- outcome [8]: inactive
- outcome [52]: inactive
- outcome [9]: inactive
- outcome [10]: inactive
- outcome [11]: inactive
- outcome [53]: inactive
- outcome [12]: inactive
- outcome [13]: inactive
- outcome [14]: inactive
- outcome [15]: inactive
- outcome [16]: inactive
- outcome [54]: inactive
- outcome [18]: inactive
- outcome [19]: inactive
- outcome [20]: inactive
- outcome [21]: inactive
- outcome [22]: inactive
- outcome [23]: inactive
- outcome [24]: inactive
- outcome [25]: inactive
- outcome [26]: inactive
- outcome [27]: inactive
- outcome [28]: inactive
- outcome [29]: inactive
- outcome [30]: inactive
- outcome [31]: inactive
- outcome [32]: inactive
- outcome [33]: inactive
- outcome [34]: inactive
- outcome [35]: inactive
- outcome [36]: inactive
- outcome [37]: inactive
- outcome [38]: inactive
- outcome [55]: inactive
- outcome [39]: inactive
- outcome [40]: inactive
- outcome [41]: inactive
- outcome [58]: inactive
- outcome [43]: inactive
- outcome [44]: inactive
- outcome [56]: inactive
- outcome [45]: inactive
- outcome [57]: inactive
- outcome [47]: inactive
- outcome [49]: inactive
- outcome [50]: inactive

Structure (SMILES): Cc1ccc(S(=O)(=O)CC(=O)CC(=O)C(=O)Nc2cccc(C(F)(F)F)c2)cc1
- TGI [1]: > 100 µM
- TGI [2]: > 100 µM
- TGI [3]: > 100 µM
- TGI [4]: > 100 µM
- TGI [5]: > 100 µM
- TGI [6]: > 100 µM
- TGI [7]: > 100 µM
- TGI [51]: > 100 µM
- TGI [52]: > 100 µM
- TGI [10]: > 100 µM
- TGI [53]: > 100 µM
- TGI [12]: > 100 µM
- TGI [13]: > 100 µM
- TGI [14]: > 100 µM
- TGI [15]: > 100 µM
- TGI [16]: > 100 µM
- TGI [17]: > 100 µM
- TGI [18]: > 100 µM
- TGI [20]: > 100 µM
- TGI [21]: > 100 µM
- TGI [22]: > 100 µM
- TGI [23]: > 100 µM
- TGI [25]: > 100 µM
- TGI [26]: > 100 µM
- TGI [28]: > 100 µM
- TGI [29]: > 100 µM
- TGI [32]: > 100 µM
- TGI [33]: > 100 µM
- TGI [34]: > 100 µM
- TGI [35]: > 100 µM
- TGI [36]: > 100 µM
- TGI [37]: > 100 µM
- TGI [38]: > 100 µM
- TGI [55]: > 100 µM
- TGI [39]: > 100 µM
- TGI [40]: > 100 µM
- TGI [41]: > 100 µM
- TGI [42]: > 100 µM
- TGI [58]: > 100 µM
- TGI [43]: > 100 µM
- TGI [44]: > 100 µM
- TGI [56]: > 100 µM
- TGI [45]: > 100 µM
- TGI [57]: > 100 µM
- TGI [46]: > 100 µM
- TGI [47]: > 100 µM
- TGI [49]: > 100 µM
- TGI [50]: > 100 µM

Structure (SMILES): O=C(Nc1ccccc1)C(=O)C(C(=O)c1ccccc1F)C1OC(=O)c2ccccc21 (stereo unspecified)
- TGI [1]: > 100 µM
- TGI [2]: 43.2 µM
- TGI [4]: > 100 µM
- TGI [5]: > 100 µM
- TGI [6]: 46.9 µM
- TGI [7]: > 100 µM
- TGI [51]: > 100 µM
- TGI [8]: 57.4 µM
- TGI [52]: > 100 µM
- TGI [9]: 61.7 µM
- TGI [10]: 93.8 µM
- TGI [11]: 55 µM
- TGI [53]: > 100 µM
- TGI [12]: > 100 µM
- TGI [13]: 67.3 µM
- TGI [14]: > 100 µM
- TGI [15]: > 100 µM
- TGI [16]: > 100 µM
- TGI [17]: > 100 µM
- TGI [54]: 43.2 µM
- TGI [18]: > 100 µM
- TGI [19]: > 100 µM
- TGI [20]: > 100 µM
- TGI [21]: > 100 µM
- TGI [22]: > 100 µM
- TGI [23]: 75.6 µM
- TGI [24]: > 100 µM
- TGI [25]: > 100 µM
- TGI [26]: > 100 µM
- TGI [27]: > 100 µM
- TGI [28]: 72.2 µM
- TGI [29]: > 100 µM
- TGI [30]: 63.2 µM
- TGI [31]: > 100 µM
- TGI [32]: > 100 µM
- TGI [33]: 62.6 µM
- TGI [34]: > 100 µM
- TGI [35]: > 100 µM
- TGI [36]: > 100 µM
- TGI [37]: > 100 µM
- TGI [38]: > 100 µM
- TGI [55]: 77.9 µM
- TGI [39]: > 100 µM
- TGI [40]: > 100 µM
- TGI [41]: > 100 µM
- TGI [42]: > 100 µM
- TGI [58]: 61.8 µM
- TGI [43]: > 100 µM
- TGI [56]: 63.2 µM
- TGI [45]: > 100 µM
- TGI [57]: 81 µM
- TGI [46]: > 100 µM
- TGI [47]: 49.9 µM
- TGI [48]: > 100 µM
- TGI [50]: > 100 µM
